Assay results: patent US20120171121A1, “Rosette Nanotubes as Drug Delivery Agents” (Brown University, priority 2011, published 2012)
Entries after “also recorded” stand apart in the source; their conditions may differ.

Assay: Solubility observations in D2O / water
Assay type: physicochemical
Method: The supernatants were characterized by DOSY NMR and UV-Vis. ^1H-NMR was used to observe the amount of drug loaded into the RNTs at various time points. All the NMR experiments were conducted on a Varian Direct Drive 600 MHz spectrometer with a dual broadband probe. UV-vis spectra were recorded on an Agilent 8453. After this series of spectral analyses were completed, CD3OD was evaporated using a stream of nitrogen and replaced with the same volume of deuterated water (D2O).
Each solution (3 mL) was placed in a 1 cm×1 cm cuvette for UV-Vis experiments. In another series of experiments the solutions were prepared at the same concentration in D2O and analyzed by UV-Vis spectroscopy.

C[C@@H]1C[C@H]2[C@@H]3CCC4=CC(=O)C=C[C@]4(C)[C@@]3(F)[C@@H](O)C[C@]2(C)[C@@]1(O)C(=O)CO [DEX, dexamethasone]
solubility in water: insoluble; also recorded: precipitates in water
